# Assay results taken from patent publication US20210254272A1, “TEXTILES HAVING ANTIMICROBIAL PROPERTIES” (Livinguard AG, priority 2015, published 2021).
# Tested on: E. coli (ATCC 25922)
# Assay: AATCC Test Method 100-2012 antibacterial activity of the treated textile, after 25 washes and 12 abrasion cycles, contact time 60 minutes
# Assay type: cell-based
# Settings: for Log reduction of antimicrobial performance: 1% o.w.f; for Log reduction of antimicrobial performance in 100 GSM Polyester fabric / Log reduction of antimicrobial performance in 100 GSM cotton fabric / Log reduction of antimicrobial performance in 300 GSM Polyester fabric / Log reduction of antimicrobial performance in 300 GSM cotton fabric / Performance Test-Log reduction of antimicrobial performance: 2 min; for Performance Test-Log reduction of antimicrobial performance: pad process, single agent 5 gm/lit
# Experimental: The antibacterial activity of the textile was tested in accordance with AATCC Test Method 100-2012. Prior to the test, the fabric was cut into coupons of 2×4 inches and washed separately 25 times, and exposed to 12 abrasion cycles, as per US EPA protocol 90072PA4 (described further below). The tests were made against E. coli (ATCC 25922). Contact time was 60 minutes, after inoculating with 10^8 CFU per coupon.
# [1] = exhaust 80° C., 60 min, curing 180° C., dosage 0.1% o.w.f
# [2] = exhaust 80° C., 60 min, curing 180° C., dosage 0.2% o.w.f
# [3] = exhaust 80° C., 60 min, curing 180° C., dosage 0.5% o.w.f
# [4] = exhaust 80° C., 60 min, curing 180° C., dosage 0.8% o.w.f
# [5] = exhaust 80° C., 60 min, curing 180° C., dosage 1.0% o.w.f
compound,measurement,setting,value
"CCCC1COC(Cn2cncn2)(c2ccc(Cl)cc2Cl)O1 (stereo not drawn) [Propiconazole, propiconazole]",Log reduction of antimicrobial performance of each active ingredient,"exhaust 60° C., solution dosage 1% o.w.f, process time 60 min",1.7 Log
same,Log reduction of antimicrobial performance of each active ingredient,"exhaust 60° C., solution dosage 1% o.w.f, process time 90 min",1.8 Log
same,Log reduction of antimicrobial performance of each active ingredient,"exhaust 60° C., solution dosage 1% o.w.f, process time 120 min",2.2 Log
same,Log reduction of antimicrobial performance of each active ingredient,"exhaust 60° C., solution dosage 1% o.w.f, process time 180 min",2.3 Log
same,Log reduction of antimicrobial performance of each active ingredient,"exhaust 60° C., solution dosage 1% o.w.f, process time 240 min",2.11 Log
same,Log reduction of antimicrobial performance,"exhaust 80° C., 60 min, curing 170° C., curing dwell time 0.5 min",0.3 Log
same,Log reduction of antimicrobial performance,"exhaust 80° C., 60 min, curing 170° C., curing dwell time 1.0 min",0.6 Log
same,Log reduction of antimicrobial performance,"exhaust 80° C., 60 min, curing 170° C., curing dwell time 1.5 min",0.8 Log
same,Log reduction of antimicrobial performance,"exhaust 80° C., 60 min, curing 170° C., curing dwell time 2.0 min",1.3 Log
same,Log reduction of antimicrobial performance,"exhaust 80° C., 60 min, curing 170° C., curing dwell time 2.5 min",1.1 Log
same,Log reduction of antimicrobial performance,"exhaust 80° C., 60 min, curing 170° C., curing dwell time 3.0 min",0.67 Log
same,Log reduction of antimicrobial performance,"exhaust 80° C., 60 min, curing 180° C., curing dwell time 0.5 min",1.7 Log
same,Log reduction of antimicrobial performance,"exhaust 80° C., 60 min, curing 180° C., curing dwell time 1.0 min",1.8 Log
same,Log reduction of antimicrobial performance,"exhaust 80° C., 60 min, curing 180° C., curing dwell time 1.5 min",2.2 Log
same,Log reduction of antimicrobial performance,"exhaust 80° C., 60 min, curing 180° C., curing dwell time 2.0 min",3.8 Log
same,Log reduction of antimicrobial performance,"exhaust 80° C., 60 min, curing 180° C., curing dwell time 2.5 min",3.5 Log
same,Log reduction of antimicrobial performance,"exhaust 80° C., 60 min, curing 180° C., curing dwell time 3.0 min",3.4 Log
same,Log reduction of antimicrobial performance,"exhaust 80° C., 60 min, curing 190° C., curing dwell time 0.5 min",0.3 Log
same,Log reduction of antimicrobial performance,"exhaust 80° C., 60 min, curing 190° C., curing dwell time 1.0 min",0.8 Log
same,Log reduction of antimicrobial performance,"exhaust 80° C., 60 min, curing 190° C., curing dwell time 1.5 min",2.2 Log
same,Log reduction of antimicrobial performance,"exhaust 80° C., 60 min, curing 190° C., curing dwell time 2.0 min",2.88 Log
same,Log reduction of antimicrobial performance,"exhaust 80° C., 60 min, curing 190° C., curing dwell time 2.5 min",2.34 Log
same,Log reduction of antimicrobial performance,"exhaust 80° C., 60 min, curing 190° C., curing dwell time 3.0 min",1.1 Log
same,Log reduction of antimicrobial performance,"exhaust 80° C., 60 min, curing temperature 100 ° C.",0.21 Log
same,Log reduction of antimicrobial performance,"exhaust 80° C., 60 min, curing temperature 120 ° C.",0.45 Log
same,Log reduction of antimicrobial performance,"exhaust 80° C., 60 min, curing temperature 140 ° C.",0.98 Log
same,Log reduction of antimicrobial performance,"exhaust 80° C., 60 min, curing temperature 160 ° C.",1.23 Log
same,Log reduction of antimicrobial performance,"exhaust 80° C., 60 min, curing temperature 165 ° C.",1.28 Log
same,Log reduction of antimicrobial performance,"exhaust 80° C., 60 min, curing temperature 170 ° C.",1.45 Log
same,Log reduction of antimicrobial performance,"exhaust 80° C., 60 min, curing temperature 175 ° C.",2.32 Log
same,Log reduction of antimicrobial performance,"exhaust 80° C., 60 min, curing temperature 180 ° C.",2.87 Log
same,Log reduction of antimicrobial performance,"exhaust 80° C., 60 min, curing temperature 185 ° C.",2.88 Log
same,Log reduction of antimicrobial performance,"exhaust 80° C., 60 min, curing temperature 190 ° C.",2.91 Log
same,Log reduction of antimicrobial performance,"exhaust 80° C., 60 min, curing temperature 195 ° C.",2.93 Log
same,Log reduction of antimicrobial performance in 100 GSM Polyester fabric,[1],0.59 Log
same,Log reduction of antimicrobial performance in 100 GSM cotton fabric,[1],0.63 Log
same,Log reduction of antimicrobial performance in 300 GSM Polyester fabric,[1],0.58 Log
same,Log reduction of antimicrobial performance in 300 GSM cotton fabric,[1],0.64 Log
same,Log reduction of antimicrobial performance in 100 GSM Polyester fabric,[2],1.35 Log
same,Log reduction of antimicrobial performance in 100 GSM cotton fabric,[2],1.45 Log
same,Log reduction of antimicrobial performance in 300 GSM Polyester fabric,[2],1.37 Log
same,Log reduction of antimicrobial performance in 300 GSM cotton fabric,[2],1.45 Log
same,Log reduction of antimicrobial performance in 100 GSM Polyester fabric,[3],1.71 Log
same,Log reduction of antimicrobial performance in 100 GSM cotton fabric,[3],1.95 Log
same,Log reduction of antimicrobial performance in 300 GSM Polyester fabric,[3],1.73 Log
same,Log reduction of antimicrobial performance in 300 GSM cotton fabric,[3],1.95 Log
same,Log reduction of antimicrobial performance in 100 GSM Polyester fabric,[4],2.14 Log
same,Log reduction of antimicrobial performance in 100 GSM cotton fabric,[4],2.34 Log
same,Log reduction of antimicrobial performance in 300 GSM Polyester fabric,[4],2.50 Log
same,Log reduction of antimicrobial performance in 300 GSM cotton fabric,[4],2.34 Log
same,Log reduction of antimicrobial performance in 100 GSM Polyester fabric,[5],2.75 Log
same,Log reduction of antimicrobial performance in 100 GSM cotton fabric,[5],2.85 Log
same,Log reduction of antimicrobial performance in 300 GSM Polyester fabric,[5],2.74 Log
same,Log reduction of antimicrobial performance in 300 GSM cotton fabric,[5],2.88 Log
same,Log reduction of antimicrobial performance of each active ingredient,"exhaust 80° C., 60 min, dosage 1% o.w.f (test up to 5% o.w.f)",2.56 Log
same,Log reduction of antimicrobial performance of each active ingredient,"exhaust 80° C., 60 min, dosage 2% o.w.f",2.57 Log
same,Log reduction of antimicrobial performance of each active ingredient,"exhaust 80° C., 60 min, dosage 3% o.w.f",2.58 Log
same,Log reduction of antimicrobial performance of each active ingredient,"exhaust 80° C., 60 min, dosage 4% o.w.f",2.61 Log
same,Log reduction of antimicrobial performance of each active ingredient,"exhaust 80° C., 60 min, dosage 5% o.w.f",2.63 Log
same,Log reduction of antimicrobial performance of each active ingredient,"exhaust 80 ° C., solution dosage 1% o.w.f, process time 10 min",0.83 Log
same,Log reduction of antimicrobial performance of each active ingredient,"exhaust 80 ° C., solution dosage 1% o.w.f, process time 20 min",0.99 Log
same,Log reduction of antimicrobial performance of each active ingredient,"exhaust 80 ° C., solution dosage 1% o.w.f, process time 30 min",1.23 Log
same,Log reduction of antimicrobial performance of each active ingredient,"exhaust 80 ° C., solution dosage 1% o.w.f, process time 40 min",1.67 Log
same,Log reduction of antimicrobial performance of each active ingredient,"exhaust 80 ° C., solution dosage 1% o.w.f, process time 50 min",2.56 Log
same,Log reduction of antimicrobial performance of each active ingredient,"exhaust 80 ° C., solution dosage 1% o.w.f, process time 60 min",2.87 Log
same,Log reduction of antimicrobial performance of each active ingredient,"exhaust 80 ° C., solution dosage 1% o.w.f, process time 70 min",2.89 Log
same,Log reduction of antimicrobial performance of each active ingredient,"exhaust 80 ° C., solution dosage 1% o.w.f, process time 80 min",2.93 Log
same,Log reduction of antimicrobial performance of each active ingredient,"exhaust 80 ° C., solution dosage 1% o.w.f, process time 90 min",2.94 Log
same,Performance Test-Log reduction of antimicrobial performance,curing 120° C.,0.04 Log
same,Performance Test-Log reduction of antimicrobial performance,curing 140° C.,0.14 Log
same,Performance Test-Log reduction of antimicrobial performance,curing 150° C.,0.22 Log
same,Performance Test-Log reduction of antimicrobial performance,curing 160° C.,0.49 Log
